Data set [1] deals with Urokinase-type plasminogen activator (Homo sapiens, UniProt P00749).
Data set [2] can be described thus: Dissociation constant, pKa of the compound. It counts as physicochemical.
Data set [3] can be described thus: Clearance in rat at 0.95 mg/kg, iv. It is filed as ADME, organism-based. Also noted: dose 0.95 mg/kg, route intravenous. Particulars: in vivo.
A short description of data set [4]: Oral bioavailability in rat at 4.2 mg/kg. It is filed as ADME, organism-based. Particulars: in vivo.
Data set [5] in a line: Half life in rat at 0.95 mg/kg, iv. It is filed as ADME, organism-based. Also on record: dose 0.95 mg/kg, route intravenous. Particulars: in vivo.
Data set [6] is described as follows: Volume of distribution in rat at 0.95 mg/kg, iv. It counts as ADME, organism-based. Also noted: dose 0.95 mg/kg, route intravenous. Conditions: in vivo.

In turn, `CCOC(=O)N1CCN(C(=O)[C@H](Cc2cccc(C(=N)N)c2)NS(=O)(=O)c2c(C(C)C)cc(C(C)C)cc2C(C)C)CC1` came in with an IC50 in data set [1] of 0.41 µM. On the same count and under the same terms, the result for `NC(N)=Nc1ncc(Cl)c2ccc(-c3cccc(C(=O)O)c3)cc12` reads 0.037 µM. On the same count and under the same terms, under `CCOc1c(Cl)cc(N2CCCCC2)cc1NC(=O)c1cc(C)c(OC[C@@H](C)N)c(C)c1` stands 0.46 µM; under `N=C(N)c1ccc(CNC(=O)[C@H](CO)NC(=O)[C@@H](CO)NS(=O)(=O)Cc2ccccc2)cc1`, 0.02 µM. Same read-out and setting: under `NCCOc1c(Cl)cc(C(=O)Nc2ccccc2)cc1Cl` stands 35 µM; under `COc1ccccc1NC(=O)c1cc(Cl)c(OCCN)c(Cl)c1`, 23 µM; under `Cc1cc(C(=O)Nc2cccc(OC(C)C)c2)cc(C)c1OCCN`, 2.7 µM. Turning to `Cc1cc(C(=O)Nc2cc(OC(C)C)cc(OC(C)C)c2)cc(C)c1OCCN`, in data set [1], the IC50 was determined as 0.072 µM. Consider `CCOc1c(Cl)cc(N2CCCCC2)cc1NC(=O)c1cc(C)c(OCCN)c(C)c1`, for which the pKa in data set [2] is 8.75. The same compound displayed a clearance in data set [3] of 43 mL/min/kg. Moreover, the bioavailability in data set [4] is 60%. This compound had a half-life in data set [5] of 7.5 h. For the same compound, the Vd in data set [6] is 27 L/kg. Take `Cc1cc(C(=O)Nc2cc(F)cc(N3CCOCC3)c2)cc(C)c1OCCN`: 1.6 µM corresponded to half-maximal inhibition in data set [1] (IC50).

The values above are taken from ChEMBL document CHEMBL1140718, “Fragment-based discovery of mexiletine derivatives as orally bioavailable inhibitors of urokinase-type plasminogen activator” (J Med Chem, 2008).
